Literature values, collected in patent publication US20110066230A1, “Fluorinated GHRH Antagonists” (priority 2009, published 2011).

Key:
pituitary receptors = molecular target: T1, pituitary receptors (Homo sapiens, UniProt Q02643); conditions: biological activity on the pituitary
T1 sequence (Q02643 23-423): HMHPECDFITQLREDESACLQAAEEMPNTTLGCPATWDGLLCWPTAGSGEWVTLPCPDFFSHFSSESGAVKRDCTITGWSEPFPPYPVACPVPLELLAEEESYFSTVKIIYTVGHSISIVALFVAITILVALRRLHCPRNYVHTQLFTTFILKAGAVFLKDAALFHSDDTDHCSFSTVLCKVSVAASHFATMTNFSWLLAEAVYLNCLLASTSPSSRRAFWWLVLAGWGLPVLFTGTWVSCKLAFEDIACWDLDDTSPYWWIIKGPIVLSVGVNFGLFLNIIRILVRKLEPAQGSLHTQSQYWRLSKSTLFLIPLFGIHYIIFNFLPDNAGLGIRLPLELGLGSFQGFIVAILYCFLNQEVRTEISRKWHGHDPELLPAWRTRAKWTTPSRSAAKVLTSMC

[1] = tested on: rat anterior pituitary adenylate cyclase
[2] = normal subjects, large doses (400 μg/kg)

Row | Substance | potency retained relative to native GH-RH (pituitary receptors) | activation of rat anterior pituitary adenylate cyclase by hGH-RH(1-29)NH2 [1] | GH levels (GH secretion; a patient with acromegaly) | nocturnal GH secretion (GH secretion; [2]) | response to GH-RH (GH secretion; [2])
1 | Tyr-Ala-Asp-Ala-Ile^5-Phe-Thr-Asn-Ser-Tyr^10-Arg-Lys-Val-Leu-Gly^15-Gln-Leu-Ser-Ala-Arg^20-Lys-Leu-Leu-Gln-Asp^25-Ile-Met-Ser-Arg^29-NH2 [GH-RH(1-29)] | ≥ 50% |  |  |  | 
2 | [Ac-Tyr^1,D-Arg^2]hGH-RH(1-29)NH2 [standard antagonist] |  | prevent the activation | reduced GH levels | eliminated nocturnal GH secretion | inhibited the response to GH-RH
